{"source": "the kinase profiling compilation of Christmann-Franck et al. (2016)", "experiment_in_all_cases": "KINOMEscan competition binding", "conditions_in_all_cases": "compound 0.5 µM", "key": {"ROCK2 (human)": {"target": "ROCK2 (human) (UniProt O75116)"}, "RPS6KA6 KD2 (human)": {"target": "RPS6KA6 KD2 (human) (UniProt Q9UK32)"}, "DYRK2 (human)": {"target": "DYRK2 (human) (UniProt Q92630)"}, "HIPK4 (human)": {"target": "HIPK4 (human) (UniProt Q8NE63)"}, "INSR (human)": {"target": "INSR (human) (UniProt P06213)"}, "SIK2 (human)": {"target": "SIK2 (human) (UniProt Q9H0K1)"}, "MAPK6 (human)": {"target": "MAPK6 (human) (UniProt Q16659)"}, "MTOR (human)": {"target": "MTOR (human) (UniProt P42345)"}, "PI4KB (human)": {"target": "PI4KB (human) (UniProt Q9UBF8)"}, "EIF2AK1 (human)": {"target": "EIF2AK1 (human) (UniProt Q9BQI3)"}, "YES1 (human)": {"target": "YES1 (human) (UniProt P07947)"}, "[1]": {"test_system": "KIT (human), P10721 [V559D/T670I]", "sequence (P10721 whole entry V559D/T670I, looked up)": "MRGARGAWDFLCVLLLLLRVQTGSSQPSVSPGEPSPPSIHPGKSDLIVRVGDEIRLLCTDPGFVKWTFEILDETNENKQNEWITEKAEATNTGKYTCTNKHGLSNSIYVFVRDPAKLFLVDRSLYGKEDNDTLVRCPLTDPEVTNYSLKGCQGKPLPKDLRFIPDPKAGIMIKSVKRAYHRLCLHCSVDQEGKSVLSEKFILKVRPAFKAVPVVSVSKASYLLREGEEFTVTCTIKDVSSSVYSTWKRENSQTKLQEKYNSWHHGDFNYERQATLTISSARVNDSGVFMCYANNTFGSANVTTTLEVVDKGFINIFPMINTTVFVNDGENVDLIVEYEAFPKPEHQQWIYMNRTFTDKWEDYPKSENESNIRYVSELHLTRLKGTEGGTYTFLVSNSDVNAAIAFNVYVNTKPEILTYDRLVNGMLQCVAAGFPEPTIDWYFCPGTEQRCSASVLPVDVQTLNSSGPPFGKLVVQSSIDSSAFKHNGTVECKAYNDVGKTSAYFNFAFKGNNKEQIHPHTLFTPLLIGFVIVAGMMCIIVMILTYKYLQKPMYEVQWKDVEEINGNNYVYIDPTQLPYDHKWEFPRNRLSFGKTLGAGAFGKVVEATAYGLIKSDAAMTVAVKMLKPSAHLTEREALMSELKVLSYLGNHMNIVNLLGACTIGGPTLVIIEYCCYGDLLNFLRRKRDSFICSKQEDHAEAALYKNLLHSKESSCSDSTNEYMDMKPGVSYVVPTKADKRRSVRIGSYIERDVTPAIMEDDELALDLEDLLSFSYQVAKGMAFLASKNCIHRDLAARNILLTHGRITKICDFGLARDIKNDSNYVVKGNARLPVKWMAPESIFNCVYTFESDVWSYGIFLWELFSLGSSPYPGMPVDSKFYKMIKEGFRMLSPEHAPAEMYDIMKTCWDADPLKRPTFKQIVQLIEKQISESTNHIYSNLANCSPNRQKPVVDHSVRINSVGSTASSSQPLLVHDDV"}, "MAP3K10 (human)": {"target": "MAP3K10 (human) (UniProt Q02779)"}, "STK24 (human)": {"target": "STK24 (human) (UniProt Q9Y6E0)"}, "MYLK2 (human)": {"target": "MYLK2 (human) (UniProt Q9H1R3)", "sequence (Q9H1R3 whole entry, looked up)": "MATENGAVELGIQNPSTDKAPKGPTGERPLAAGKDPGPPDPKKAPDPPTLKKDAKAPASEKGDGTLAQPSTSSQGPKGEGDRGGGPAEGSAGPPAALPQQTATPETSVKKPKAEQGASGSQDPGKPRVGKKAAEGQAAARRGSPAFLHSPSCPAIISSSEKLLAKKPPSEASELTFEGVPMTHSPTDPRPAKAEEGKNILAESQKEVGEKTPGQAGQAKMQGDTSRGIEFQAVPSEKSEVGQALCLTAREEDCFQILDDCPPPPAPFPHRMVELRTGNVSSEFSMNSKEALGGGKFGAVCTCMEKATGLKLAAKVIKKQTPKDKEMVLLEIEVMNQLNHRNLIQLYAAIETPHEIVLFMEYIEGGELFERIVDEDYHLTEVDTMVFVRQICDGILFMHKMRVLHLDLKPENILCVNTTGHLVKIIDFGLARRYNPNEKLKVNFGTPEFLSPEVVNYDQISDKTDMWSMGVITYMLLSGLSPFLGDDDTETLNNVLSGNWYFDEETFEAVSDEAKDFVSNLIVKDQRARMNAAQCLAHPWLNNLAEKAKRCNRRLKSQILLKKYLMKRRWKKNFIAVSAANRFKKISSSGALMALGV"}, "DSTYK (human)": {"target": "DSTYK (human) (UniProt Q6XUX3)"}, "STK3 (human)": {"target": "STK3 (human) (UniProt Q13188)", "sequence (Q13188 whole entry, looked up)": "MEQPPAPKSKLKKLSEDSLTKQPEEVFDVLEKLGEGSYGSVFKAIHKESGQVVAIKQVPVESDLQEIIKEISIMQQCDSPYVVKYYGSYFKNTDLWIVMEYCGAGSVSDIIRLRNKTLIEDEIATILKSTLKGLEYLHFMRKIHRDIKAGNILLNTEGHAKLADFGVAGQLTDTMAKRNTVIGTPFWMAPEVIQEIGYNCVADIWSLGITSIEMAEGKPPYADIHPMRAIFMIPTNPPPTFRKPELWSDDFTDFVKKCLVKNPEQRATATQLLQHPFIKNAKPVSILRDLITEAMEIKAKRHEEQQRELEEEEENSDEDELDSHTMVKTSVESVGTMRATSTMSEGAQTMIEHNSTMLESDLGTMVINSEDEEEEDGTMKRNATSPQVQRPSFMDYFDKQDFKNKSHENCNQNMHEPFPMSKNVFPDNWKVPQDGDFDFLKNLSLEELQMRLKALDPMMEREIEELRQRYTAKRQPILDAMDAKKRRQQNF"}, "NEK9 (human)": {"target": "NEK9 (human) (UniProt Q8TD19)"}, "SNRK (human)": {"target": "SNRK (human) (UniProt Q9NRH2)", "sequence (Q9NRH2 whole entry, looked up)": "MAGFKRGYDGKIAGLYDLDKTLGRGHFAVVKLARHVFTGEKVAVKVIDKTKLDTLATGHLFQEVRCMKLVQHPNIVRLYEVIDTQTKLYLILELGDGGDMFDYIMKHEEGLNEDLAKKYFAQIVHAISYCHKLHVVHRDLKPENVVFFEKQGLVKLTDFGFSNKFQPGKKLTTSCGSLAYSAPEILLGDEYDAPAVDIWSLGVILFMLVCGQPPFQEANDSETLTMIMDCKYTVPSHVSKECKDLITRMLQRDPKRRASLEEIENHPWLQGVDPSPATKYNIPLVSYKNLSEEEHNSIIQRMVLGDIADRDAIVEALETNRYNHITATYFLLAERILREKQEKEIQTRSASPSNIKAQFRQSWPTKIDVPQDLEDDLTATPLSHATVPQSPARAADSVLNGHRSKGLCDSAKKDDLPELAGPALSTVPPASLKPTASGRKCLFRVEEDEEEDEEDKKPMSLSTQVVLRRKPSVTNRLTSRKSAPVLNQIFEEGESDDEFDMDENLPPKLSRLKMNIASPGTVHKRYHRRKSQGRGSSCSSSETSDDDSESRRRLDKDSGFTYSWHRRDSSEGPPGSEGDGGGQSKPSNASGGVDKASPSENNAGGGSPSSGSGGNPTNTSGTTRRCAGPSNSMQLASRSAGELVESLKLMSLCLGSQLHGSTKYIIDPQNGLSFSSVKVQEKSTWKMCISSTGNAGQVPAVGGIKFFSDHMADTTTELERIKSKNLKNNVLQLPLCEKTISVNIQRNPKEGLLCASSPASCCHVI"}, "STK16 (human)": {"target": "STK16 (human) (UniProt O75716)"}, "PIP4K2C (human)": {"target": "PIP4K2C (human) (UniProt Q8TBX8)"}, "BMP2K (human)": {"target": "BMP2K (human) (UniProt Q9NSY1)"}, "MAP3K12 (human)": {"target": "MAP3K12 (human) (UniProt Q12852)"}, "CDK17 (human)": {"target": "CDK17 (human) (UniProt Q00537)"}, "MYO3A (human)": {"target": "MYO3A (human) (UniProt Q8NEV4)"}, "[2]": {"test_system": "EIF2AK4 KD2 (human), Q9P2K8 [S808G]"}, "SRMS (human)": {"target": "SRMS (human) (UniProt Q9H3Y6)"}, "TRPM6 (human)": {"target": "TRPM6 (human) (UniProt Q9BX84)"}, "STK11 (human)": {"target": "STK11 (human) (UniProt Q15831)"}, "MAP2K2 (human)": {"target": "MAP2K2 (human) (UniProt P36507)"}, "TEC (human)": {"target": "TEC (human) (UniProt P42680)"}, "FGR (human)": {"target": "FGR (human) (UniProt P09769)", "sequence (P09769 whole entry, looked up)": "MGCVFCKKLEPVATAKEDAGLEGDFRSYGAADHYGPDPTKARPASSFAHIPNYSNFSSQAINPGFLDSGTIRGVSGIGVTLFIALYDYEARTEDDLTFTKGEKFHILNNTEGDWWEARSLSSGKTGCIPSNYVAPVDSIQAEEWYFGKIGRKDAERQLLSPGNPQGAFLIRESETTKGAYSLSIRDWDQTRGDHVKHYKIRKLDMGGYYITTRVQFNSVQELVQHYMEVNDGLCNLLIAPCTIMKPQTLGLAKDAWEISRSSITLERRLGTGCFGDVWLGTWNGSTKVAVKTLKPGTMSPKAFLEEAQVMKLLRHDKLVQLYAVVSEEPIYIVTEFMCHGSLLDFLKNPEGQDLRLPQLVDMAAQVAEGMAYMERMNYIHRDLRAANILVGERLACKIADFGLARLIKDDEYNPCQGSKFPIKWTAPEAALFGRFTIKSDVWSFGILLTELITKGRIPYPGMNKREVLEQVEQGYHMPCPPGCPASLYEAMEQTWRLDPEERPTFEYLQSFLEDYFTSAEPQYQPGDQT"}, "CAMK2D (human)": {"target": "CAMK2D (human) (UniProt Q13557)"}, "[3]": {"target": "JAK2 JH1 catalytic (human) (UniProt O60674)", "sequence (O60674 whole entry, looked up)": "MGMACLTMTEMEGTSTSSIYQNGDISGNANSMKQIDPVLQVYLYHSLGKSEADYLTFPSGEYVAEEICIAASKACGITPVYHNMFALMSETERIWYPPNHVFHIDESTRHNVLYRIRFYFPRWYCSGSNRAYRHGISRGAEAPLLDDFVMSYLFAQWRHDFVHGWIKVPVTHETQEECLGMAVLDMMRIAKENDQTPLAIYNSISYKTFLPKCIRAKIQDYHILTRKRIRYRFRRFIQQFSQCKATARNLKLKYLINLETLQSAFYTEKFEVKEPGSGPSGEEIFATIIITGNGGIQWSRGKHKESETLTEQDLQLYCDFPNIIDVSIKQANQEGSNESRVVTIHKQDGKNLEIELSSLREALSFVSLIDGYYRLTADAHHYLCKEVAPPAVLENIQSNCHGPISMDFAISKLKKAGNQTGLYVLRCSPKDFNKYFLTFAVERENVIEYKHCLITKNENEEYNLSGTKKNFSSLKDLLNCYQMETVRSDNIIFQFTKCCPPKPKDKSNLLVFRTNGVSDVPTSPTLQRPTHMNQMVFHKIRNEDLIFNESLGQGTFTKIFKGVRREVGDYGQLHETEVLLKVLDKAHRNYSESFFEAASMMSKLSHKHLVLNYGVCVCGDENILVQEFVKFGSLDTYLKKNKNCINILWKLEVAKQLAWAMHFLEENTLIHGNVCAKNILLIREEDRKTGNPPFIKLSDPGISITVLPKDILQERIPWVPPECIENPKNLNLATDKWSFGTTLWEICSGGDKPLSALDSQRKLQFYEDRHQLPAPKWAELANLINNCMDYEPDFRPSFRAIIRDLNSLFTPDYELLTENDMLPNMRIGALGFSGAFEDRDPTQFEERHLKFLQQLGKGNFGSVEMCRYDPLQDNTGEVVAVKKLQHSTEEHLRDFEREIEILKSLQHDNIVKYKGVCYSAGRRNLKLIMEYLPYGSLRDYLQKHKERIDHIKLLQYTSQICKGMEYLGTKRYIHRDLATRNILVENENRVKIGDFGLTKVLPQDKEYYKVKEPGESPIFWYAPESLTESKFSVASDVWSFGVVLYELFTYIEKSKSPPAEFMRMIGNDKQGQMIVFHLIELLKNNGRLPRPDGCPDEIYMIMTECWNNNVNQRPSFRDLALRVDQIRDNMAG"}, "AURKB (human)": {"target": "AURKB (human) (UniProt Q96GD4)"}, "CDK15 (human)": {"target": "CDK15 (human) (UniProt Q96Q40)", "sequence (Q96Q40 whole entry, looked up)": "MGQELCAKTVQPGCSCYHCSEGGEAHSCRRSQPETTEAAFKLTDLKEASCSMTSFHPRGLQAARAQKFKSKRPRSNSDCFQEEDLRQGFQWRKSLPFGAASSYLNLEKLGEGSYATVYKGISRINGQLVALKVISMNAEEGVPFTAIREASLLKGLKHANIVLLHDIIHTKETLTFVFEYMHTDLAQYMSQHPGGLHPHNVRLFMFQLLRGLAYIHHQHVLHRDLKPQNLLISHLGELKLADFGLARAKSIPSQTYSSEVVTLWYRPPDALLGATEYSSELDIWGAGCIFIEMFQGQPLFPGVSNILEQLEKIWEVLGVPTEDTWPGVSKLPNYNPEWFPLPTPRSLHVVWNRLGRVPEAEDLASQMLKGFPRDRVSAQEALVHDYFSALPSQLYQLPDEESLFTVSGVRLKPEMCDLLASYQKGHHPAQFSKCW"}, "STK35 (human)": {"target": "STK35 (human) (UniProt Q8TDR2)"}, "PAK1 (human)": {"target": "PAK1 (human) (UniProt Q13153)"}, "PIK3CB (human)": {"target": "PIK3CB (human) (UniProt P42338)"}, "GRK7 (human)": {"target": "GRK7 (human) (UniProt Q8WTQ7)"}, "[4]": {"test_system": "ABL1 (human), P00519 [M351T]"}}, "data": [{"smiles": "Cn1c2ccccc2c2c3c(c4c5ccccc5n(CCC#N)c4c21)CNC3=O", "values": [{"measurement": "kinase still bound, per cent of control", "setting": "ROCK2 (human)", "result": 18, "unit": "%"}, {"measurement": "kinase still bound, per cent of control", "setting": "RPS6KA6 KD2 (human)", "result": 100, "unit": "%"}, {"measurement": "kinase still bound, per cent of control", "setting": "DYRK2 (human)", "result": 37, "unit": "%"}, {"measurement": "kinase still bound, per cent of control", "setting": "HIPK4 (human)", "result": 8, "unit": "%"}, {"measurement": "kinase still bound, per cent of control", "setting": "INSR (human)", "result": 84, "unit": "%"}, {"measurement": "kinase still bound, per cent of control", "setting": "SIK2 (human)", "result": 36, "unit": "%"}, {"measurement": "kinase still bound, per cent of control", "setting": "MAPK6 (human)", "result": 74, "unit": "%"}, {"measurement": "kinase still bound, per cent of control", "setting": "MTOR (human)", "result": 52, "unit": "%"}, {"measurement": "kinase still bound, per cent of control", "setting": "PI4KB (human)", "result": 62, "unit": "%"}, {"measurement": "kinase still bound, per cent of control", "setting": "EIF2AK1 (human)", "result": 100, "unit": "%"}, {"measurement": "kinase still bound, per cent of control", "setting": "YES1 (human)", "result": 96, "unit": "%"}, {"measurement": "kinase still bound, per cent of control", "setting": "[1]", "result": 57, "unit": "%"}, {"measurement": "kinase still bound, per cent of control", "setting": "MAP3K10 (human)", "result": 98, "unit": "%"}, {"measurement": "kinase still bound, per cent of control", "setting": "STK24 (human)", "result": 92, "unit": "%"}, {"measurement": "kinase still bound, per cent of control", "setting": "MYLK2 (human)", "result": 58, "unit": "%"}, {"measurement": "kinase still bound, per cent of control", "setting": "DSTYK (human)", "result": 2, "unit": "%"}, {"measurement": "kinase still bound, per cent of control", "setting": "STK3 (human)", "result": 0.8, "unit": "%"}, {"measurement": "kinase still bound, per cent of control", "setting": "NEK9 (human)", "result": 100, "unit": "%"}, {"measurement": "kinase still bound, per cent of control", "setting": "SNRK (human)", "result": 69, "unit": "%"}, {"measurement": "kinase still bound, per cent of control", "setting": "STK16 (human)", "result": 84, "unit": "%"}, {"measurement": "kinase still bound, per cent of control", "setting": "PIP4K2C (human)", "result": 75, "unit": "%"}, {"measurement": "kinase still bound, per cent of control", "setting": "BMP2K (human)", "result": 3.4, "unit": "%"}, {"measurement": "kinase still bound, per cent of control", "setting": "MAP3K12 (human)", "result": 89, "unit": "%"}, {"measurement": "kinase still bound, per cent of control", "setting": "CDK17 (human)", "result": 100, "unit": "%"}, {"measurement": "kinase still bound, per cent of control", "setting": "MYO3A (human)", "result": 35, "unit": "%"}, {"measurement": "kinase still bound, per cent of control", "setting": "[2]", "result": 77, "unit": "%"}, {"measurement": "kinase still bound, per cent of control", "setting": "SRMS (human)", "result": 100, "unit": "%"}, {"measurement": "kinase still bound, per cent of control", "setting": "TRPM6 (human)", "result": 81, "unit": "%"}, {"measurement": "kinase still bound, per cent of control", "setting": "STK11 (human)", "result": 4.4, "unit": "%"}, {"measurement": "kinase still bound, per cent of control", "setting": "MAP2K2 (human)", "result": 61, "unit": "%"}, {"measurement": "kinase still bound, per cent of control", "setting": "TEC (human)", "result": 92, "unit": "%"}, {"measurement": "kinase still bound, per cent of control", "setting": "FGR (human)", "result": 84, "unit": "%"}, {"measurement": "kinase still bound, per cent of control", "setting": "CAMK2D (human)", "result": 33, "unit": "%"}, {"measurement": "kinase still bound, per cent of control", "setting": "[3]", "result": 0.2, "unit": "%"}, {"measurement": "kinase still bound, per cent of control", "setting": "AURKB (human)", "result": 32, "unit": "%"}, {"measurement": "kinase still bound, per cent of control", "setting": "CDK15 (human)", "result": 100, "unit": "%"}, {"measurement": "kinase still bound, per cent of control", "setting": "STK35 (human)", "result": 73, "unit": "%"}, {"measurement": "kinase still bound, per cent of control", "setting": "PAK1 (human)", "result": 84, "unit": "%"}, {"measurement": "kinase still bound, per cent of control", "setting": "PIK3CB (human)", "result": 88, "unit": "%"}, {"measurement": "kinase still bound, per cent of control", "setting": "GRK7 (human)", "result": 10, "unit": "%"}, {"measurement": "kinase still bound, per cent of control", "setting": "[4]", "result": 88, "unit": "%"}]}]}
